# Several values for one entry are separate records, joined by “and”; a condition that tells them apart may be missing. Identical values can stand only once.
# Target: T1, PAF specific receptor binding site (human platelet membranes) (Homo sapiens, UniProt P25105)
# T1 construct: platelet membranes at a drug concentration of 3 nM; from tissue; host or cells: human platelet plasma membranes
# Experiment: Inhibition of [3H]N-methylcarbamoyl-PAF binding to human platelet membranes
# Conditions: drug concentration of 3 nM, trans configuration
# Description: The ability of a compound of formula (I) to inhibit the PAF binding to its specific receptor binding site on rabbit or human platelet or PMN plasma membranes was measured by a recently developed assay.
# The inhibition of ^3 [H]-PAF or ^3 [H]-N-methyl carbamoyl-TAF binding to the human or rabbit platelet or PMN plasma membrane by a PAF antagonist of formula (I) was determined by a method employing isotopic labeling and filtration techniques. Generally, a series of Tris-buffered solutions of the selected antagonist at predetermined concentrations were prepared. Each of these solutions contains 1 pmole of ^3 H-PAF, a known amount of the test antagonist, and a sufficient amount of the pH 7.5 Tris-buffer solution (10mM Tris, 0.25% bovine serum albumin, and 150 mM NaCl per ml water) to make the final volume of 1 ml. After adding into a set of test tubes each with 100 μg of the platelet plasma membrane suspension (S. B. Hwang, et. al., Biochemistry, Vol. 22 pp. 4756-4763, 1983) and one of the Tris-buffer solutions described above, the resulting mixture in each test tube was incubated at 0° C. for about one hours or until the reaction was complete. Two control samples, one of which (C1) contains all the ingredients described above except the antagonist and the other (C2) contains C1 plus a 100-fold excess of unlabeled PAF, were also prepared and incubated simultaneously with the test samples. After the incubation was completed, the contents of each test tube were filtered under vacuo through a Whatman GF/C fiberglass filter and the residue washed rapidly several times with a total of 20 ml cold (0°-5° C.) Tris-buffer solution. Each washed residue was then suspended in 10 ml scintillation solution (Aquasol 2, New England Nuclear, Conn.) and the radioactivity was counted in a Packard Tri-Carb 460CD Liquid Scintillation System. Defining the counts from a test sample as "Total binding with antagonist"; the counts from the control sample C1, as "Total binding C1 "; and the counts from the control sample C2 as "non-specific binding C2 ", the percent inhibition of each test antagonist can be determined by the following equations: [formula]
# T1 sequence (P25105 whole entry): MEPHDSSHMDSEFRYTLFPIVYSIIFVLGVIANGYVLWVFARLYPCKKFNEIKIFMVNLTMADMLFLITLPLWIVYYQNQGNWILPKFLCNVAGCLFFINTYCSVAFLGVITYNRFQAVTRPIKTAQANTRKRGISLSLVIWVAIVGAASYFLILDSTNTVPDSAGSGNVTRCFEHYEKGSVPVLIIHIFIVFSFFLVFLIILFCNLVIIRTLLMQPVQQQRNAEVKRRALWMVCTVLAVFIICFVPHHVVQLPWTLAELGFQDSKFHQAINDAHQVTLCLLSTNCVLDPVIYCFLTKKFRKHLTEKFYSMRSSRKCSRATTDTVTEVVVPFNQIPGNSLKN
row,inhibition at 0.003 µM [%],Structure (SMILES)
1,31,"CCCOc1c(OCCCN2CCOCC2)cc([C@@H]2CC[C@@H](c3cc(OC)c(OC)c(OC)c3)O2)cc1S(=O)(=O)CC(C)=O (relative stereo) [trans-2-[3-(2-oxopropylsulfonyl)-4-n-propoxy-5-{3-(1-morpholino)-n-propoxy}phenyl]-5-(3,4,5-trimethoxyphenyl)tetrahydrofuran]"
2,93,"CCCS(=O)(=O)c1cc([C@H]2CC[C@H](c3cc(OC)c(OC)c(OC)c3)O2)cc(OC)c1OCCSc1ccc(C#N)cc1 (relative stereo) [trans-2-[3-n-Propylsulfonyl-4-{2-(4-cyanophenylthio)ethoxy}-5-methoxyphenyl]-5-(3,4,5-trimethoxyphenyl) tetrahydrofuran]"
3,34,"CCCOc1c(OCCN2CCCCC2)cc([C@H]2CC[C@H](c3cc(OC)c(OC)c(OC)c3)O2)cc1S(=O)(=O)CC(C)=O (relative stereo) [trans-2-[3-(2-Oxopropylsulfonyl)-4-n-propoxy-5-{2-(1-piperidinyl)-ethoxy}phenyl]-5-(3,4,5-trimethoxyphenyl)tetrahydrofuran]"
4,25,"CCCOc1c(OCCCN2CCOCC2)cc([C@@H]2CC[C@@H](c3cc(OC)c(OC)c(OC)c3)O2)cc1S(=O)(=O)CCC(C)O (relative stereo) [trans-2-[3-(3-Hydroxybutyl)sulfonyl-4-n-propoxy-5-(3-{1-morpholino}-n-propoxy)phenyl]-5-(3,4,5-trimethoxyphenyl)tetrahydrofuran]"
5,18,"CCCOc1c(OCCCN2CCOCC2)cc([C@@H]2CC[C@@H](c3cc(OC)c(OC)c(OC)c3)O2)cc1S(=O)(=O)CC(C)O (relative stereo) [trans-2-[3-(2-hydroxypropyl-sulfonyl)-4-propoxy-5-{3-(1-morpholino)-n-propoxy}phenyl]-5-(3,4,5-trimethoxyphenyl)tetrahydrofuran]"
6,55,"CCCOc1c(OCCSc2ncc[nH]2)cc([C@H]2CC[C@H](c3cc(OC)c(OC)c(OC)c3)O2)cc1S(=O)(=O)CC(C)=O (relative stereo) [trans-2-[3-(2-Oxopropylsulfonyl)-4-n-propoxy-5-{2-(2-imidazolylthio)ethoxy}phenyl]-5-(3,4,5-trimethoxyphenyl)tetrahydrofuran]"
7,48,"CCCOc1c(OCCCN2CCCC2)cc([C@@H]2CC[C@@H](c3cc(OC)c(OC)c(OC)c3)O2)cc1S(=O)(=O)CC(C)=O (relative stereo) [trans-2-[3-(2-Oxopropylsulfonyl)-4-n-propoxy-5-{3-(1-pyrrolidino)-n-propoxy}phenyl]-5-(3,4,5-trimethoxyphenyl)tetrahydrofuran]"
8,46,"CCCOc1c(OCCCSc2ncc[nH]2)cc([C@H]2CC[C@H](c3cc(OC)c(OC)c(OC)c3)O2)cc1S(=O)(=O)CC(C)O (relative stereo) [trans-2-[3-(2-Hydroxy-n-propylsulfonyl)-4-n-propoxy-5-{3-(2-imidazolylthio)n-propoxy}phenyl]-5-(3,4,5-trimethoxyphenyl)tetrahydrofuran]"
9,69,"CCCOc1c(OCCCSc2nc[nH]n2)cc([C@@H]2CC[C@@H](c3cc(OC)c(OC)c(OC)c3)O2)cc1S(=O)(=O)CC(C)=O (relative stereo) [trans-2-[3-(2-Oxopropylsulfonyl)-4-n-propoxy-5-{3-(1H-1,2,4-triazolyl-3-thio)n-propoxy}phenyl]-5-(3,4,5-trimethoxyphenyl)tetrahydrofuran]"

row,Structure (SMILES),inhibition at 0.003 µM [%]
1,"CCCOc1c(OCCCCN2CCOCC2)cc([C@@H]2CC[C@@H](c3cc(OC)c(OC)c(OC)c3)O2)cc1S(=O)(=O)CC(C)=O (relative stereo) [trans-2-[3-(2-Oxopropylsulfonyl)-4-n-propoxy-5-{4-(1-morpholino)-n-butoxy}phenyl]-5-(3,4,5-trimethoxyphenyl)tetrahydrofuran]",30

# Same assay, conditions: drug concentration of 3 nM, trans configuration, 0.003 µM
row,% Inhibition of the binding of [3H]N-methylcarbamoyl-PAF to human platelet membranes,Structure (SMILES)
1,60% and 100%,"CCCS(=O)(=O)c1cc([C@H]2CC[C@H](c3cc(OC)c(OC)c(OC)c3)O2)cc(OC)c1OCCSc1ccc(O)cc1 (relative stereo) [trans-2-[3-Propylsulfonyl-4-{2-(4-hydroxyphenylthio)-ethoxy}-5-methoxyphenyl]-5-(3,4,5-trimethoxyphenyl) tetrahydrofuran]"
